We go through three molecules from PMC4685510, “A Cell Biologist’s Field Guide to Aurora Kinase Inhibitors” (Frontiers in Oncology, 2015).

Molecules are shown by their SMILES.

Experiment in all cases: biochemical
Common to all, as to type: biochemical

The target in experiment [1] is T1, 363 human kinases (including Aurora A/B/C) (Homo sapiens, UniProt P42680).
T1 sequence (P42680 1-631): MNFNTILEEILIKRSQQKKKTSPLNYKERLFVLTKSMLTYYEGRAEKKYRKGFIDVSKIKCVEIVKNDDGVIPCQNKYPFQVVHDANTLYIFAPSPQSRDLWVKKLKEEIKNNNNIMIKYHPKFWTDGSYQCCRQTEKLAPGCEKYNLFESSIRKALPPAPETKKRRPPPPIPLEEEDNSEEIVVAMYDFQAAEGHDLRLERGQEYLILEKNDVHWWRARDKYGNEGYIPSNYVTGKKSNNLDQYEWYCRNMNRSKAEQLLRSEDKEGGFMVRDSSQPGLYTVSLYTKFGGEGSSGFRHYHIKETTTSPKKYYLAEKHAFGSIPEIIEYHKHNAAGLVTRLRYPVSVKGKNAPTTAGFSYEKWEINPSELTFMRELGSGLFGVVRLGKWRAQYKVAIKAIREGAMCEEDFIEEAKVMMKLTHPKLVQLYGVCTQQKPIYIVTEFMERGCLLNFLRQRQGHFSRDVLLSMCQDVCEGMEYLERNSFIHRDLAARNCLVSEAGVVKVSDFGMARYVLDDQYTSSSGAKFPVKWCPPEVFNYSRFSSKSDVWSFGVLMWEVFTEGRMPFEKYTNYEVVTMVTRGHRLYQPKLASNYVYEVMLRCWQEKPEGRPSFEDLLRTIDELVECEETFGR
Conditions: TEC; for remaining activity at 0.5 µM / remaining activity at 0.1 µM: read-out: % Enzyme Activity (relative to DMSO controls); for remaining activity at 0.1 µM: 100 nM.
Description: (§1) However, the Aurora A/B selectivity ratios derived from our in vitro and in vivo data can be compared to prioritize inhibitors.

The target in experiment [2] is T2, 363 human kinases (including Aurora A/B/C) (Homo sapiens, UniProt Q13237).
T2 sequence (Q13237 1-762): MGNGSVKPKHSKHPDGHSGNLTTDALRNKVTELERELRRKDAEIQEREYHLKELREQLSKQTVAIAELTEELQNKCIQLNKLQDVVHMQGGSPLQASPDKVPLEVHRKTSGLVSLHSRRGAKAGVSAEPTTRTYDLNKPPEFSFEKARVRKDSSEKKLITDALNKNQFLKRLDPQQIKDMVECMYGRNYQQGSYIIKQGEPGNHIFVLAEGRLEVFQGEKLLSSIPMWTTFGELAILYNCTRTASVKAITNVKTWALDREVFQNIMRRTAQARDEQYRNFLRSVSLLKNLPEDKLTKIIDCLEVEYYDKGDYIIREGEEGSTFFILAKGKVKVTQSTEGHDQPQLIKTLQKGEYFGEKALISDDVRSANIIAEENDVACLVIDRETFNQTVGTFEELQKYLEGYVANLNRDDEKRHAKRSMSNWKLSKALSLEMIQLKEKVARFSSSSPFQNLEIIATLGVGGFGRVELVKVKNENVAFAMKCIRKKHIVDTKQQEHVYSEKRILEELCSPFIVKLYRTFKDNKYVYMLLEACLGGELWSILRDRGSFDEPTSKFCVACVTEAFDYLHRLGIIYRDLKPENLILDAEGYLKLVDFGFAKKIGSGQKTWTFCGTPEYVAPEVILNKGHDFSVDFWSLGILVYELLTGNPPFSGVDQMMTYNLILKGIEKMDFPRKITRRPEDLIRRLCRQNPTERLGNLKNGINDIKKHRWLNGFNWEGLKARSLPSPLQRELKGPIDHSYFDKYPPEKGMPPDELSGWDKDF
The following applies: PKG2/PRKG2; for remaining activity at 0.5 µM / remaining activity at 0.1 µM: read-out: % Enzyme Activity (relative to DMSO controls); for remaining activity at 0.1 µM: 100 nM.
Description: as §1

Experiment [3] deals with T3, 363 human kinases (including Aurora A/B/C) (Homo sapiens, UniProt Q99683).
T3 sequence (Q99683 1-1374): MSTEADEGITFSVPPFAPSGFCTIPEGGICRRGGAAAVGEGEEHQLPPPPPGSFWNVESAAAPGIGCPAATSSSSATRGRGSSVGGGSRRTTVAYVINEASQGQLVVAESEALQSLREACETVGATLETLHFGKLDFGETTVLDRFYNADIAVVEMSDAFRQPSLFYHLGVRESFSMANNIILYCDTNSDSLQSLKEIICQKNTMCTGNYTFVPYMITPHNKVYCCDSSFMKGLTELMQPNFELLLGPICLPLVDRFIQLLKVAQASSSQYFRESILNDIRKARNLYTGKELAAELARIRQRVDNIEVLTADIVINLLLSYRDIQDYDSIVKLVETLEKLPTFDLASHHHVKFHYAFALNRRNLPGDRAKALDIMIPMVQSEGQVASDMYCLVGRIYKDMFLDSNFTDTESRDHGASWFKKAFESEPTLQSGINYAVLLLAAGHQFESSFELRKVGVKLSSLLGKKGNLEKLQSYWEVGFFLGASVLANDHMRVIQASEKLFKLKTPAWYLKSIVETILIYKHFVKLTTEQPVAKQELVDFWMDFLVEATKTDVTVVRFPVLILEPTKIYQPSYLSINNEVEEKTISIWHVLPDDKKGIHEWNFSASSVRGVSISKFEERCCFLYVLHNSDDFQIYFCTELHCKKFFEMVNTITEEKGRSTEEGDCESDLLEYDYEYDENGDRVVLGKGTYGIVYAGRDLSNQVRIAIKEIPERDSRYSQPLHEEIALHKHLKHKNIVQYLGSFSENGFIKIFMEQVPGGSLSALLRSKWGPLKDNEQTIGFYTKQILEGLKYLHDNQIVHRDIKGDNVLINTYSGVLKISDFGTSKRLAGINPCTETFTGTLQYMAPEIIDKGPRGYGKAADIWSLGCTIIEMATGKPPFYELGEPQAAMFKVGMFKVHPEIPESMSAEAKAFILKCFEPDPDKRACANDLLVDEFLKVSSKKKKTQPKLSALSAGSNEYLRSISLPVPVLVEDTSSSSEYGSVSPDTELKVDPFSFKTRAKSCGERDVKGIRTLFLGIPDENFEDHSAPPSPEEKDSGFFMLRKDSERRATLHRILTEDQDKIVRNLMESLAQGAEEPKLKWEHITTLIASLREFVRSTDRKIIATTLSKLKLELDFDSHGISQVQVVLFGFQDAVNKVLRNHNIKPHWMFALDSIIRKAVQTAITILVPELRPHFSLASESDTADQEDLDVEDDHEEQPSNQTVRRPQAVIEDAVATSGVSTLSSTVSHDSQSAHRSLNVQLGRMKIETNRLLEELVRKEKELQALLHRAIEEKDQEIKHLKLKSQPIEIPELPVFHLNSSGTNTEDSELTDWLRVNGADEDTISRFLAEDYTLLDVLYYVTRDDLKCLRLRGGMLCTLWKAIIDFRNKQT
Conditions: ASK1/MAP3K5, [ATP] 100 µM; for remaining activity at 0.5 µM / remaining activity at 0.1 µM: read-out: % Enzyme Activity (relative to DMSO controls); for remaining activity at 0.1 µM: 100 nM.
Description: as §1

In experiment [4] the target is 363 human kinases (including Aurora A/B/C) (Homo sapiens, UniProt Q9UKE5). The following applies: TNIK; for remaining activity at 0.5 µM / remaining activity at 0.1 µM: read-out: % Enzyme Activity (relative to DMSO controls); for remaining activity at 0.1 µM: 100 nM.
Chain of 363 human kinases (including Aurora A/B/C) (Homo sapiens, UniProt Q9UKE5) (Q9UKE5 whole entry): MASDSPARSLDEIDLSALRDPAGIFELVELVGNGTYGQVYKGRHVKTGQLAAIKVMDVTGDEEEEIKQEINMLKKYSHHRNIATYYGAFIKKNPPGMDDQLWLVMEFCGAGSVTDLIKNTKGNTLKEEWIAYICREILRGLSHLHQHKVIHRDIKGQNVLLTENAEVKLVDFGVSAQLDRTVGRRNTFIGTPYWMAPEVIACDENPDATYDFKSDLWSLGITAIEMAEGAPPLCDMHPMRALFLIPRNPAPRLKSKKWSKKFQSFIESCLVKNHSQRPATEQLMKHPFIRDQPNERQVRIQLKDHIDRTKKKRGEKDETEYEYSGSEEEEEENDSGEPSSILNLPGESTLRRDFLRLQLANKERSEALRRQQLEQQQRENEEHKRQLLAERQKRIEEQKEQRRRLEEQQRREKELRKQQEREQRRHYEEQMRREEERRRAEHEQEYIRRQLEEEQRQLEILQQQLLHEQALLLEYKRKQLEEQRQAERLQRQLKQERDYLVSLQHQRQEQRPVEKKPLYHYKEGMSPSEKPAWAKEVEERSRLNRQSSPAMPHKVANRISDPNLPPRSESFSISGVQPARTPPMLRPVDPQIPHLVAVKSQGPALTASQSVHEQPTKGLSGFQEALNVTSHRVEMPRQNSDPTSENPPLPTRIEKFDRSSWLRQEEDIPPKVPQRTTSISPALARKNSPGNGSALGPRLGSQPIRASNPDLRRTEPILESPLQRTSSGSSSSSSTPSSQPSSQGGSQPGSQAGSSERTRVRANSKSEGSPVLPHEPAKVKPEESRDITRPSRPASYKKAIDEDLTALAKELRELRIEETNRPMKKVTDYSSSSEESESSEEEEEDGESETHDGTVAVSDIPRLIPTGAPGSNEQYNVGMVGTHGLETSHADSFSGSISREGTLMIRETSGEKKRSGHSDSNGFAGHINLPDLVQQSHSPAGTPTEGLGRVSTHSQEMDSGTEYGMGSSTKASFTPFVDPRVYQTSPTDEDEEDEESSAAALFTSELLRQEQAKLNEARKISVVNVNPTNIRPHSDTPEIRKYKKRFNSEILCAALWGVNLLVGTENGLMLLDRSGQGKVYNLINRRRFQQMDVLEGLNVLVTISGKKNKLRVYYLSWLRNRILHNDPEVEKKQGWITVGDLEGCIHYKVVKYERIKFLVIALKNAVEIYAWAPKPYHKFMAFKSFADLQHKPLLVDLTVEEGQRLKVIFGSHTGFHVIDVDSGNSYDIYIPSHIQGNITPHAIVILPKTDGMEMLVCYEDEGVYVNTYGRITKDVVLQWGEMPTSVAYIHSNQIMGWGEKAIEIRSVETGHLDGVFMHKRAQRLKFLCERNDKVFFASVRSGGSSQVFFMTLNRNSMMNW
Description: as §1

On to `O=C(c1cccc(Cl)c1F)N1CCN(Cc2cccc(Nc3nccs3)n2)CC1` [MK-8745], for which the “% Enzyme Activity (relative to DMSO controls)” value turned out to be 100.04% in experiment [1] (500 nM), 95.25% in experiment [2] (500 nM), 78.24% in experiment [3] (500 nM) and 77.61% in experiment [4] (500 nM). The remaining activity at 0.5 µM came out at 102% in experiment [1] (500 nM), 95.3% in experiment [2] (500 nM), 78.7% in experiment [3] (500 nM) and 81.3% in experiment [4] (500 nM).
Turning to `CCn1cc(-c2ccnc3[nH]c(-c4cccc(CN(C)C)c4)cc23)c(-c2ccc(NC(=O)N(C)C)cc2)n1` [GSK1070916], the remaining activity at 0.1 µM in experiment [1] is 100%; in experiment [2], 97.2%; in experiment [3], 79.6%; in experiment [4], 57.3%.
On to `O=C(O)[C@]1(Cc2cccc(Nc3nccs3)n2)CC[C@@H](Oc2cccc(Cl)c2F)CC1` [MK-5108], for which the remaining activity at 0.1 µM was 68.8% in experiment [1], 106% in experiment [2], 85.6% in experiment [3] and 49.5% in experiment [4]. Moreover, the remaining activity at 0.5 µM in experiment [1] (500 nM) was 40.6%; in experiment [2] (500 nM), 97.3%; in experiment [3] (500 nM) it was 73.8%; in experiment [4] (500 nM) it was 14.8%.
